Legend:
Format in all cases: in vivo
[1] = system: common chickweed (Stellaria media); test: Preemergence herbicidal activity, chickweed; conditions: Rate of Application 0.3 Kg/Ha, examined after 12-17 days
[2] = system: common cocklebur (Xanthium strumarium L.); test: Postemergence herbicidal activity, cocklebur; conditions: rate of application 0.3 Kg/Ha, rated after 12-17 days
[3] = system: blackgrass (Aloepecurus myosuroides); test: Preemergence herbicidal activity, blackgrass; conditions: Rate of Application 0.3 Kg/Ha, examined after 12-17 days
[4] = system: soybean (Glycine max var. Winchester); test: Postemergence herbicidal activity, soybean; conditions: rate of application 0.3 Kg/Ha, rated after 12-17 days
[5] = system: morningglory (Ipomea lacunosa or Ipomea hederacea); test: Postemergence herbicidal activity, morningglory; conditions: rate of application 0.3 Kg/Ha, rated after 12-17 days
[6] = system: green foxtail (Setaria viridis); test: Postemergence herbicidal activity, green foxtail; conditions: rate of application 0.3 Kg/Ha, rated after 12-17 days
[7] = system: common cocklebur (Xanthium strumarium L.); test: Preemergence herbicidal activity, cocklebur; conditions: Rate of Application 0.3 Kg/Ha, examined after 12-17 days
[8] = system: velvetleaf (Abutilon theophrasti); test: Postemergence herbicidal activity, velvetleaf; conditions: rate of application 0.3 Kg/Ha, rated after 12-17 days
[9] = system: Johnsongrass (Sorghum halepense); test: Postemergence herbicidal activity, johnsongrass; conditions: rate of application 0.3 Kg/Ha, rated after 12-17 days
[10] = system: field corn (Zea mays var. Pioneer 3732); test: Postemergence herbicidal activity, corn; conditions: rate of application 0.3 Kg/Ha, rated after 12-17 days
[11] = system: wheat (Triticum aestivum var. Lew); test: Preemergence herbicidal activity, wheat; conditions: Rate of Application 0.3 Kg/Ha, examined after 12-17 days
[12] = system: green foxtail (Setaria viridis); test: Preemergence herbicidal activity, green foxtail; conditions: Rate of Application 0.3 Kg/Ha, examined after 12-17 days
[13] = system: morningglory (Ipomea lacunosa or Ipomea hederacea); test: Preemergence herbicidal activity, morningglory; conditions: Rate of Application 0.3 Kg/Ha, examined after 12-17 days
[14] = system: field corn (Zea mays var. Pioneer 3732); test: Preemergence herbicidal activity, corn; conditions: Rate of Application 0.3 Kg/Ha, examined after 12-17 days
[15] = system: wheat (Triticum aestivum var. Lew); test: Postemergence herbicidal activity, wheat; conditions: rate of application 0.3 Kg/Ha, rated after 12-17 days
[16] = system: soybean (Glycine max var. Winchester); test: Preemergence herbicidal activity, soybean; conditions: Rate of Application 0.3 Kg/Ha, examined after 12-17 days
[17] = system: blackgrass (Aloepecurus myosuroides); test: Postemergence herbicidal activity, blackgrass; conditions: rate of application 0.3 Kg/Ha, rated after 12-17 days
[18] = system: Johnsongrass (Sorghum halepense); test: Preemergence herbicidal activity, johnsongrass; conditions: Rate of Application 0.3 Kg/Ha, examined after 12-17 days
[19] = system: velvetleaf (Abutilon theophrasti); test: Preemergence herbicidal activity, velvetleaf; conditions: Rate of Application 0.3 Kg/Ha, examined after 12-17 days

Row | Structure (SMILES) | PREEMERGENCE HERBICIDAL ACTIVITY (% CONTROL) STEME [1] [%] | Postemergence herbicidal activity (% control) XANPE [2] [%] | PREEMERGENCE HERBICIDAL ACTIVITY (% CONTROL) ALOMY [3] [%] | Postemergence herbicidal activity (% control) SOY [4] [%] | Postemergence herbicidal activity (% control) IPOSS [5] [%] | Postemergence herbicidal activity (% control) SETVI [6] [%] | PREEMERGENCE HERBICIDAL ACTIVITY (% CONTROL) XANPE [7] [%] | Postemergence herbicidal activity (% control) ABUTH [8] [%] | Postemergence herbicidal activity (% control) SORHA [9] [%] | Postemergence herbicidal activity (% control) CRN [10] [%] | PREEMERGENCE HERBICIDAL ACTIVITY (% CONTROL) WHT [11] [%] | PREEMERGENCE HERBICIDAL ACTIVITY (% CONTROL) SETVI [12] [%] | PREEMERGENCE HERBICIDAL ACTIVITY (% CONTROL) IPOSS [13] [%] | PREEMERGENCE HERBICIDAL ACTIVITY (% CONTROL) CRN [14] [%] | Postemergence herbicidal activity (% control) WHT [15] [%] | PREEMERGENCE HERBICIDAL ACTIVITY (% CONTROL) SOY [16] [%] | Postemergence herbicidal activity (% control) ALOMY [17] [%] | PREEMERGENCE HERBICIDAL ACTIVITY (% CONTROL) SORHA [18] [%] | PREEMERGENCE HERBICIDAL ACTIVITY (% CONTROL) ABUTH [19] [%]
1 | C=CCOc1nc2c(-n3c(=O)cc(C(F)(F)F)n(C)c3=O)c(F)cc(Br)c2o1 [Compound 110] | 100 | 100 | 80 | 80 | 100 | 80 | 40 | 100 | 70 | 50 | 50 | 100 | 90 | 70 | 40 | 100 | 70 | 100 | 100
2 | Cn1c(C(F)(F)F)cc(=O)n(-c2c(F)cc(Cl)c3cc(CCF)oc23)c1=O [Compound 237] | 100 | 100 | 100 | 100 | 100 | 100 | 100 | 100 | 100 | 100 | 90 | 100 | 100 | 90 | 95 | 100 | 100 | 100 | 100
3 | Cn1c(C(F)(F)F)cc(=O)n(-c2ccc(Cl)c3cc(CO)oc23)c1=O [Compound 238] | 60 | 100 | 50 | 80 | 100 | 80 | 80 | 100 | 70 | 70 | 60 | 90 | 100 | 70 | 30 | 100 | 40 | 90 | 100
